According to patent publication US12414566B2, “Safener containing herbicidal oil dispersion” (ARYSTA LIFESCIENCE INC, priority 2017, dated 2025):
Read-outs that look alike come from different tables or passages of the source.

Test: Chemical stability in butyl benzoate
Format: physicochemical

| SMILES | chemical stability in the butyl benzoate | chemical stability in the butyl benzoate (room temperature or accelerated temperature) |
| --- | --- | --- |
| COc1nn(C(=O)[N-]S(=O)(=O)c2ccccc2OC(F)(F)F)c(=O)n1C.[Na+] [Flucarbazone sodium] | chemically stable | – |
| CC(Oc1ccc(Oc2nc3ccc(Cl)cc3o2)cc1)C(=O)O (centres unmarked) [fenoxaprop] | – | chemically stable |
